Measurements from patent US11319289B2, “5-hydroxy pyridine-based compound for use as P2X1 and P2X3 receptor antagonist and pharmaceutical composition comprising same” (GWANGJU INSTITUTE OF SCIENCE AND TECHNOLOGY, priority 2017, dated 2022).

Tests used:
Type in all cases: cell-based
[1] = target: T1, mouse P2X1 receptor (mP2X1) (Mus musculus, UniProt P51576); assay: Two-electrode voltage clamp assay, recombinant mP2X1 receptor in Xenopus oocytes; conditions: 10 μM compound, 2 μM ATP, mean±SEM n≥3 (footnote c); for inhibition at 10 µM: read-out: mP2X1 % inhibitory effect at 10 μM
T1 construct: expressed in transfected cells; host or cells: Xenopus oocytes (cRNA microinjection)
T1 sequence (P51576 1-399): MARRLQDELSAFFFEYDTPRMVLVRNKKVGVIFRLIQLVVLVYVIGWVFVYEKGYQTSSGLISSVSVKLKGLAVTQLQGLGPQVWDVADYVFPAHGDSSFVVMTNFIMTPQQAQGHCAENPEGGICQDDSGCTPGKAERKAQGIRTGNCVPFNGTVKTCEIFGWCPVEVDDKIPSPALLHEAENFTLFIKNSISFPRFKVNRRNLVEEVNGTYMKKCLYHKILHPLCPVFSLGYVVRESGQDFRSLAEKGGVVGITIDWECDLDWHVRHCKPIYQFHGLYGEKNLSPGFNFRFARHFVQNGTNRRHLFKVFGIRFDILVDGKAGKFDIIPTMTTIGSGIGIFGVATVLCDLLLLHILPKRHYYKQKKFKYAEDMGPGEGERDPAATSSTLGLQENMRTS
Protocol: (§1) 1-1. Two-Electrode Voltage Clamp Assay for Recombinant mP2X1 and hP2X3 Receptors
(§2) Xenopus oocytes were isolated and incubated with 270 U/mg of collagenase at 23 to 24° C. for 1.5 hours. Defolliculated oocytes were kept in Barth's solution at 18° C. After 1 day, the defolliculated oocytes were each microinjected cytosolically with mP2X1 and human P2X3 receptor cRNA ([…], 1 μg/mL), incubated for 24 hours at 18° C. in Barth's solution. The cRNA-injected oocytes were kept for 12 days at 4° C. ATP-activated membrane currents (Vh=−70 mV) were recorded from the cRNA-injected oocytes using the two-electrode voltage clamp technique (Axoclamp 2B amplifier). Voltage recording ([…] tip resistance) and current-recording microelectrodes (5 MΩ tip resistance) were filled with 3.0 M KCl. Oocytes were placed in an electrophysiological chamber continuously superfused with Ringer's solution (5 mL/min, at 18° C.) containing 110 mM NaCl, 2.5 mM KCl, 5 mM HEPES and 1.8 mM BaCl2, with pH adjusted to 7.5. To induce an evoked current, 2 μM ATP was superfused for 60 to 120 seconds and then washed for 20 min. For data analysis, the ATP-evoked current was normalized at pH 7.5. The compounds were introduced to the fixed oocytes 20 minutes prior to ATP exposure in the electrophysiological chamber. IC50 values (the concentration of the compound required to inhibit the ATP response by 50%) were determined by Hill plots designed using the Chemical Formula: log(I/Imax−1), where I is the current evoked by ATP in the presence of an antagonist. Data are presented as mean±SEM (n≥3) from different batches of oocytes.
(§3) In order to investigate the structure-activity relationship (SAR) of the compounds synthesized in the present invention, the antagonistic activity was evaluated by a two-electrode voltage clamp (TEVC) assay in Xenopus oocytes expressing the recombinant mP2X1 or hP2X3, respectively. The hP2X7R antagonistic activity was assessed using an ethidium ion accumulation assay in human HEK293 cells stably expressing the recombinant human P2X7R.

[2] = target: T2, human P2X7 receptor (hP2X7) (Homo sapiens, UniProt Q99572); assay: Ethidium bromide accumulation assay in hP2X7-expressing HEK293 cells; conditions: 10 μM compound with BzATP
T2 construct: expressed in transfected cells
T2 sequence (Q99572 1-595): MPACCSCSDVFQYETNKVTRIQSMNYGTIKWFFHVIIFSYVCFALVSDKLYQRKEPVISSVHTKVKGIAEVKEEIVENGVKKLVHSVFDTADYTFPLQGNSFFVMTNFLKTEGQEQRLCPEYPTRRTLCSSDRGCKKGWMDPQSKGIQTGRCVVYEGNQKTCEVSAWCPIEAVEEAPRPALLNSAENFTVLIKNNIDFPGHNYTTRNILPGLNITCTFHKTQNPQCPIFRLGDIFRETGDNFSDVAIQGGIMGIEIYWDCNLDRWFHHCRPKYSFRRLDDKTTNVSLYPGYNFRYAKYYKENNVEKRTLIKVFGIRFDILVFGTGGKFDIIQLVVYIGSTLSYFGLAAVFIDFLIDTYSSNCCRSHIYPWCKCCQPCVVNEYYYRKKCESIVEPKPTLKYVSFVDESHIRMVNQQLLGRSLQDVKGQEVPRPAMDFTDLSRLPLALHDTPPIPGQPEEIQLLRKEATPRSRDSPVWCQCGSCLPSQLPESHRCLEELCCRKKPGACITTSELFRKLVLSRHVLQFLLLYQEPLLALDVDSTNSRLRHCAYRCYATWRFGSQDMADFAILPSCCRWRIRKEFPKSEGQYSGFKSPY
Protocol: 1-2. Ethidium Bromide Accumulation Assay in hP2X-Expressing HEK293 Cells
HEK293 cells that are stably transfected with the human P2X7 receptor (P2X7R) were kept under a humidified atmosphere of 5% CO2 at 37° C. in DMEM supplemented with 10% (v/v) FBS, 2 mM L-glutamine and antibiotics (50 U/mL penicillin and 50 μg/ml streptomycin). BzATP-induced pore formation was measured using a fluorescence plate reader by measuring cellular absorption of ethidium in the hP2X7-expressing HEK293 cells. The hP2X7-expressing HEK293 cells were washed once with an appropriate assay buffer, and the buffer was also removed before subsequent analysis. All studies were performed at room temperature and the final assay volume was 100 μL. The cells were resuspended at 2.5×10^6 cells/mL in assay buffers consisting of 10 mM HEPES, 5 mM N-methyl-D-glucamine, 5.6 mM KCl, 10 mM D-glucose and 0.5 mM CaCl2 (pH 7.4) and supplemented with 280 mM sucrose or 140 mM NaCl.
In order to determine the antagonistic activity of the 5-hydroxyl-pyridine derivatives of the present invention and the reference compound (AZD9056), these compounds were added to the cells at a concentration of 10 μM with BzATP without pre-incubation. The cells were incubated for 2 hours under a humidified atmosphere of 5% CO2 at 37° C., and the absorption of ethidium dye was observed by measuring fluorescence with a Bio-Tek instrument FL600 fluorescent plate reader (excitation wavelength of 530 nm and emission wavelength of 590 nm). The results are expressed as a percentage relative to the maximum cumulative amount of ethidium bromide when stimulated with BzATP alone.
as §3

[3] = target: T3, human P2X3 receptor (hP2X3) (Homo sapiens, UniProt P56373); assay: Two-electrode voltage clamp assay, recombinant hP2X3 receptor in Xenopus oocytes; conditions: for IC50: 2 μM ATP-evoked current, mean±SEM n≥3 (footnote d); for IC50 / inhibition at 1 µM: Xenopus oocytes; for inhibition at 1 µM: 1 μM compound, 2 μM ATP, mean±SEM n≥3 (footnote b), read-out: hP2X3 % inhibitory effect at 1 μM
T3 construct: expressed in transfected cells; host or cells: Xenopus oocytes (cRNA microinjection)
T3 sequence (P56373 1-397): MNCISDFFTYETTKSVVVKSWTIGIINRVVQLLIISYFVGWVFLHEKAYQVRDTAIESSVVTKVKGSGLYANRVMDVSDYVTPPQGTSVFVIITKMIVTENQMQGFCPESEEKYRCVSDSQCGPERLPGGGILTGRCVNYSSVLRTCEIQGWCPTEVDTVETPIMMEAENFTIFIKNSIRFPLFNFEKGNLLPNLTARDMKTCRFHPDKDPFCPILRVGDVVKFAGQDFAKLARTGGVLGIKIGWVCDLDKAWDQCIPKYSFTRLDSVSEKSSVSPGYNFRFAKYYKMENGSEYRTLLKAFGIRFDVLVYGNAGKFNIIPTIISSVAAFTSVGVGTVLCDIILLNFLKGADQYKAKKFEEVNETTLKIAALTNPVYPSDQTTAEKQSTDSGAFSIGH
Protocol: as §1, §2, §3

Compound	inhibition at 10 µM [1] [%]	hP2X7 % inhibition of ethidium bromide accumulation [2]	IC50 [3] [nM]	mP2X1 % inhibitory effect at 10 μM [1]	inhibition at 1 µM [3] [%]	selectivity for hP2X3R to mP2X1R ([3]; hP2X3R versus mP2X1R)
COc1ccc(CCc2nc(C(=O)O)c(O)c(C(=O)O)c2C(=O)O)cc1 [Compound 13j, 3-Hydroxy-6-(4-methoxyphenethyl)pyridine-2,4,5-tricarboxylic acid]	36.7 ± 2.8	Inactive	319 ± 81			
COc1ccc(CCc2nc(C)c(O)c(-c3nnn[nH]3)c2C(=O)O)cc1 [Compound 17, 5-Hydroxy-2-(4-methoxyphenethyl)-6-methyl-4-(1H-tetrazol-5-yl)nicotinic acid]		inactive		Inactive^c	27.3 ± 1.8	
CCc1nc(CCc2ccc(OC)cc2)c(C(=O)O)c(C(=O)O)c1O [Compound 13c, 6-Ethyl-5-hydroxy-2-(4-methoxyphenethyl)pyridine-3,4-dicarboxylic acid]	48.1 ± 8.8	inactive	550 ± 93			
CCCc1nc(CCc2ccc(OC)cc2)c(C)c(C(=O)O)c1O [Compound 22c, 3-Hydroxy-6-(4-methoxyphenethyl)-5-methyl-2-propylisonicotinic acid]	22.7	Inactive	303			
COc1ccc(CCc2nc(CC(C)C)c(O)c(C(=O)O)c2C(=O)O)cc1 [Compound 13g, 5-Hydroxy-6-isobutyl-2-(4-methoxyphenethyl)pyridine-3,4-dicarboxylic acid]	23.4 ± 0.8	inactive			32	
CCCCc1nc(CCc2ccc(OC)cc2)c(C(=O)O)c(C(=O)O)c1O [Compound 13e, 6-Butyl-5-hydroxy-2-(4-methoxyphenethyl)pyridine-3,4-dicarboxylic acid]	41.9 ± 9.1	inactive	95			about 100 fold
COc1ccc(CCc2nc(CCc3ccccc3)c(O)c(C(=O)O)c2C(=O)O)cc1 [Compound 13i, 5-Hydroxy-2-(4-methoxyphenethyl)-6-phenethylpyridine-3,4-dicarboxylic acid]		inactive	742 ± 73	Inactive^c		
CCCc1nc(Cc2cccc(Oc3ccccc3)c2)c(C)c(/C=C/C(=O)O)c1O [Compound 35, (E)-3-(3-Hydroxy-5-methyl-6-(3-phenoxybenzyl)-2-propylpyridin-4-yl)acrylic acid]		inactive		Inactive^c	< 50	
COc1ccc(CCc2nc(CCSC)c(O)c(C(=O)O)c2C(=O)O)cc1 [Compound 13k, 5-Hydroxy-2-(4-methoxyphenethyl)-6-(2-(methylthio)ethyl)pyridine-3,4-dicarboxylic acid]		inactive	287 ± 87	Inactive^c		
COc1ccc(CCc2cc(S(C)(=O)=O)c(O)c(C)n2)cc1 [Compound 20, 6-(4-Methoxyphenethyl)-2-methyl-4-(methylsulfonyl)pyridin-3-ol]		inactive		inactive^c	20.4	
COc1ccc(CCc2nc(CCS(C)(=O)=O)c(O)c(C(=O)O)c2C(=O)O)cc1 [Compound 13l, 5-Hydroxy-2-(4-methoxyphenethyl)-6-(2-(methylsulfonyl)ethyl)pyridine-3,4-dicarboxylic acid]		Inactive	721 ± 96	Inactive^c		
